Target: truncated PI3Kα (p110α/iSH2 p85α) (Homo sapiens (Human), UniProt P42336)
Assay: PI3KA_Act fluorescence polarization kinase assay (Ki)
Type: biochemical
Conditions: 1 mM ATP
How it was run: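 p110α/iSH2 p85α (0.5 nM) was reacted with 30 μM sonicated PIP2 in 50 mM HEPES pH 7.4, 150 mM NaCl, 5 mM MgCl2, 1 mM DTT and 0.05% CHAPS for 30 min at room temperature, then stopped with EDTA. PIP3 was detected by fluorescence polarization (GST-Grp1 PH domain/TAMRA-PIP3), and Ki came from a Morrison tight-binding fit.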

Sequence of truncated PI3Kα (p110α/iSH2 p85α) (P42336 whole entry, the tested form may be a part): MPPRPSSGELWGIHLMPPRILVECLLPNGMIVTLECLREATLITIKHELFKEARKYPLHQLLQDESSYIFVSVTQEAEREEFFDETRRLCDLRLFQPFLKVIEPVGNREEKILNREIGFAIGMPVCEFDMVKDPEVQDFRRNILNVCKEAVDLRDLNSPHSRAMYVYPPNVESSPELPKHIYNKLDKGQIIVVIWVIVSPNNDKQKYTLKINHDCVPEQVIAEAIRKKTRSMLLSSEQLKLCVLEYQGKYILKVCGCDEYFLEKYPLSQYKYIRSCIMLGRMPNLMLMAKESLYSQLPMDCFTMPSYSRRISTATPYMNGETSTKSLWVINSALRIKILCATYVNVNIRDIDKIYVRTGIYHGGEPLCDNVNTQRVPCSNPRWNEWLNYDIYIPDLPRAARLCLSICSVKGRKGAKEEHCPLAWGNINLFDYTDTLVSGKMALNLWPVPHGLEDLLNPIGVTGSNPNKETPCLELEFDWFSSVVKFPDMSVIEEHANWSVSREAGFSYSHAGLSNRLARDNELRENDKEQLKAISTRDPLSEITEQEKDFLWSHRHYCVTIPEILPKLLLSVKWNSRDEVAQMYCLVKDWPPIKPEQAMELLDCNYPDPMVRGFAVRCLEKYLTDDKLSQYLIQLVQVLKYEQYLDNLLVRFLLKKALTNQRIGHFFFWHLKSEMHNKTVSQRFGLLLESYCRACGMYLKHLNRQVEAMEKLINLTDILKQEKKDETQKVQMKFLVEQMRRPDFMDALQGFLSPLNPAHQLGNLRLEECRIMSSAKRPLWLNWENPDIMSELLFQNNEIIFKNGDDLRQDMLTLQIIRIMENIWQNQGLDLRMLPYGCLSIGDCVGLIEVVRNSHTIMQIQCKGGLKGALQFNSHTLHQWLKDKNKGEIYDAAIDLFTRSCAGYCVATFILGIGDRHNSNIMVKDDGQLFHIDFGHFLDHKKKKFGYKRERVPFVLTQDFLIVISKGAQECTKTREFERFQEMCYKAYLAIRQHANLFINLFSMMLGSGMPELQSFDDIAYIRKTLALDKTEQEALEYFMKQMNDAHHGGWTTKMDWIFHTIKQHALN

In order of falling “PI3KA_Act Ki” value:
1. Cl.Nc1ncc(-c2nc(N3CCOCC3)nc3c2CCN3[C@@H]2CNC[C@@H]2F)cn1 [Example 254, 5-{7-[(3R,4S)-4-fluoropyrrolidin-3-yl]-2-(morpholin-4-yl)-6,7-dihydro-5H-pyrrolo[2,3-d]pyrimidin-4-yl}pyrimidin-2-amine hydrochloride]  1893 pM
2. COCCC(=O)N1CC(N2CCc3c(-c4cnc(N)nc4)nc(N4CCOCC4)nc32)C1 [Example 221]  1291 pM
3. Cl.Nc1ncc(-c2nc(N3CCOCC3)nc3c2CCN3[C@H]2CNC[C@H]2F)cn1 [Example 255, 5-{7-[(3S,4R)-4-fluoropyrrolidin-3-yl]-2-(morpholin-4-yl)-6,7-dihydro-5H-pyrrolo[2,3-d]pyrimidin-4-yl}pyrimidin-2-amine hydrochloride]  1168 pM
4. CN(C)C(=O)CN1CC[C@@](C)(N2CCc3c(-c4cnc(N)nc4)nc(N4CCOCC4)nc32)C1 [Example 402, 2-{(3R)-3-[4-(2-aminopyrimidin-5-yl)-2-(morpholin-4-yl)-5,6-dihydro-7H-pyrrolo[2,3-d]pyrimidin-7-yl]-3-methylpyrrolidin-1-yl}-N,N-dimethylacetamide]  872 pM
5. CN(C)CC(=O)N1CC[C@@](C)(N2CCc3c(-c4cnc(N)nc4)nc(N4CCOCC4)nc32)C1 [Example 300, 1-{(3R)-3-[4-(2-aminopyrimidin-5-yl)-2-(morpholin-4-yl)-5,6-dihydro-7H-pyrrolo[2,3-d]pyrimidin-7-yl]-3-methylpyrrolidin-1-yl}-2-(dimethylamino) ethanone]  669 pM
6. CC(C)N1CC[C@](C)(N2CCc3c(-c4cnc(N)nc4)nc(N4CCOCC4)nc32)C1 [Example 420, 5-{7-[(3S)-3-methyl-1-(propan-2-yl)pyrrolidin-3-yl]-2-(morpholin-4-yl)-6,7-dihydro-5H-pyrrolo[2,3-d]pyrimidin-4-yl}pyrimidin-2-amine]  601 pM
7. tert-butyl (trans-3-{4-(2-aminopyrimidin-5-yl)-2-[(3S)-3-methylmorpholin-4-yl]-5,6-dihydro-7H-pyrrolo[2,3-d]pyrimidin-7-yl}cyclobutyl)methylcarbamate [Example 449]  294 pM
8. C[C@H]1COCCN1c1nc(-c2cnc(N)nc2)c2c(n1)N(C1CN(S(=O)(=O)C3CCC3)C1)CC2 [Example 463, 5-{7-[1-(cyclobutylsulfonyl)azetidin-3-yl]-2-[(3S)-3-methylmorpholin-4-yl]-6,7-dihydro-5H-pyrrolo[2,3-d]pyrimidin-4-yl}pyrimidin-2-amine]  169 pM
9. CC(C)(N)C(=O)N1CC(C)(N2CCc3c(-c4cnc(N)nc4)nc(N4CCOCC4)nc32)C1 [Example 243, 2-amino-1-{3-[4-(2-aminopyrimidin-5-yl)-2-(morpholin-4-yl)-5,6-dihydro-7H-pyrrolo[2,3-d]pyrimidin-7-yl]-3-methylazetidin-1-yl}-2-methylpropan-1-one]  165 pM
10. C[C@@]1(N2CCc3c(-c4cnc(N)nc4)nc(N4CCOCC4)nc32)CCN(C(=O)CC(F)(F)F)C1 [Example 308, 1-{(3R)-3-[4-(2-aminopyrimidin-5-yl)-2-(morpholin-4-yl)-5,6-dihydro-7H-pyrrolo[2,3-d]pyrimidin-7-yl]-3-methylpyrrolidin-1-yl}-3,3,3-trifluoropropan-1-one]  126 pM
11. C[C@]1(N2CCc3c(-c4cnc(N)nc4)nc(N4CCOCC4)nc32)CCN(C(=O)C2(N)CCC2)C1 [Example 346, (1-aminocyclobutyl) {(3S)-3-[4-(2-aminopyrimidin-5-yl)-2-(morpholin-4-yl)-5,6-dihydro-7H-pyrrolo[2,3-d]pyrimidin-7-yl]-3-methylpyrrolidin-1-yl}methanone]  125 pM
12. C[C@H]1COCCN1c1nc(-c2cnc(N)nc2)c2c(n1)N([C@]13C[C@H]1CN(C(=O)OC(C)(C)C)C3)CC2 [Example 528, tert-butyl (1R,5S)-1-{4-(2-aminopyrimidin-5-yl)-2-[(3S)-3-methylmorpholin-4-yl]-5,6-dihydro-7H-pyrrolo[2,3-d]pyrimidin-7-yl}-3-azabicyclo[3.1.0]hexane-3-carboxylate]  92 pM
13. CC(C)(N)C(=O)N1CC[C@@](C)(N2CCc3c(-c4cnc(N)nc4)nc(N4CCOCC4)nc32)C1.Cl [Example 289, 2-amino-1-{(3R)-3-[4-(2-aminopyrimidin-5-yl)-2-(morpholin-4-yl)-5,6-dihydro-7H-pyrrolo[2,3-d]pyrimidin-7-yl]-3-methylpyrrolidin-1-yl}-2-methylpropan-1-one hydrochloride]  75 pM
14. C[C@H]1COCCN1c1nc(-c2cnc(N)nc2)c2c(n1)N(C1(C)CN(C(=O)C(C)(C)N)C1)CC2.Cl [Example 456, 2-amino-1-(3-{4-(2-aminopyrimidin-5-yl)-2-[(3S)-3-methylmorpholin-4-yl]-5,6-dihydro-7H-pyrrolo[2,3-d]pyrimidin-7-yl}-3-methylazetidin-1-yl)-2-methylpropan-1-one hydrochloride]  63 pM
15. C[C@]1(N2CCc3c(-c4cnc(N)nc4)nc(N4CCOCC4)nc32)CCN(C(=O)CC(F)(F)F)C1 [Example 309, 1-{(3S)-3-[4-(2-aminopyrimidin-5-yl)-2-(morpholin-4-yl)-5,6-dihydro-7H-pyrrolo[2,3-d]pyrimidin-7-yl]-3-methylpyrrolidin-1-yl}-3,3,3-trifluoropropan-1-one]  56 pM
16. COC(=O)N1CC(C)(N2CCc3c(-c4cnc(N)nc4)nc(N4CCOCC4)nc32)C1 [Example 247, methyl 3-[4-(2-aminopyrimidin-5-yl)-2-(morpholin-4-yl)-5,6-dihydro-7H-pyrrolo[2,3-d]pyrimidin-7-yl]-3-methylazetidine-1-carboxylate]  55 pM
17. CNS(=O)(=O)N1CC(C)(N2CCc3c(-c4cnc(N)nc4)nc(N4CCOC[C@@H]4C)nc32)C1 [Example 220]  53 pM
18. CCC(=O)N1CC[C@](C)(N2CCc3c(-c4cnc(N)nc4)nc(N4CCOCC4)nc32)C1 [Example 260, 1-{(3S)-3-[4-(2-aminopyrimidin-5-yl)-2-(morpholin-4-yl)-5,6-dihydro-7H-pyrrolo[2,3-d]pyrimidin-7-yl]-3-methylpyrrolidin-1-yl}propan-1-one]  30 pM
19. C[C@]1(N2CCc3c(-c4cnc(N)nc4)nc(N4CCOCC4)nc32)CCN(C(=O)C2CC(O)C2)C1 (stereo partly drawn) [Example 345, {(3S)-3-[4-(2-aminopyrimidin-5-yl)-2-(morpholin-4-yl)-5,6-dihydro-7H-pyrrolo[2,3-d]pyrimidin-7-yl]-3-methylpyrrolidin-1-yl}(3-hydroxycyclobutyl) methanone]  28 pM
20. CC(C)[C@H](O)C(=O)N1CC[C@](C)(N2CCc3c(-c4cnc(N)nc4)nc(N4CCOCC4)nc32)C1 [Example 272, (2S)-1-{(3S)-3-[4-(2-aminopyrimidin-5-yl)-2-(morpholin-4-yl)-5,6-dihydro-7H-pyrrolo[2,3-d]pyrimidin-7-yl]-3-methylpyrrolidin-1-yl}-2-hydroxy-3-methylbutan-1-one]  22 pM

With CCOC(=O)N1CC[C@](C)(N2CCc3c(-c4cnc(N)nc4)nc(N4CCOCC4)nc32)C1 [Example 405, ethyl (3S)-3-[4-(2-aminopyrimidin-5-yl)-2-(morpholin-4-yl)-5,6-dihydro-7H-pyrrolo[2,3-d]pyrimidin-7-yl]-3-methylpyrrolidine-1-carboxylate] the “PI3KA_Act Ki” value was under 18 pM.
CC(C)(C)C(=O)N1CC[C@](C)(N2CCc3c(-c4cnc(N)nc4)nc(N4CCOCC4)nc32)C1 [Example 264, 1-{(3S)-3-[4-(2-aminopyrimidin-5-yl)-2-(morpholin-4-yl)-5,6-dihydro-7H-pyrrolo[2,3-d]pyrimidin-7-yl]-3-methylpyrrolidin-1-yl}-2,2-dimethylpropan-1-one] was tested, and the “PI3KA_Act Ki” value was under 18 pM.
In the case of CNC(C)(C)C(=O)N1CC[C@](C)(N2CCc3c(-c4cnc(N)nc4)nc(N4CCOC[C@@H]4C)nc32)C1.Cl [Example 488, 1-[(3S)-3-{4-(2-aminopyrimidin-5-yl)-2-[(3S)-3-methylmorpholin-4-yl]-5,6-dihydro-7H-pyrrolo[2,3-d]pyrimidin-7-yl}-3-methylpyrrolidin-1-yl]-2-methyl-2-(methylamino)propan-1-one hydrochloride], the “PI3KA_Act Ki” value is reported as under 18 pM.
C[C@H]1COCCN1c1nc(-c2cnc(N)nc2)c2c(n1)N([C@@]1(C)CCN(C(=O)[C@](C)(N)CO)C1)CC2.Cl [Example 485, (2R)-2-amino-1-[(3S)-3-{4-(2-aminopyrimidin-5-yl)-2-[(3S)-3-methylmorpholin-4-yl]-5,6-dihydro-7H-pyrrolo[2,3-d]pyrimidin-7-yl}-3-methylpyrrolidin-1-yl]-3-hydroxy-2-methylpropan-1-one hydrochloride] was tested, and the “PI3KA_Act Ki” value was under 18 pM.
In the case of C[C@]1(N2CCc3c(-c4cnc(N)nc4)nc(N4CCOCC4)nc32)CCN(C(=O)[C@@]2(F)CCNC2)C1.Cl [Example 384], the “PI3KA_Act Ki” value is reported as under 18 pM.
For Cc1n[nH]cc1C(=O)N1CC[C@](C)(N2CCc3c(-c4cnc(N)nc4)nc(N4CCOCC4)nc32)C1 [Example 386, {(3S)-3-[4-(2-aminopyrimidin-5-yl)-2-(morpholin-4-yl)-5,6-dihydro-7H-pyrrolo[2,3-d]pyrimidin-7-yl]-3-methylpyrrolidin-1-yl}(3-methyl-1H-pyrazol-4-yl)methanone], the “PI3KA_Act Ki” value was under 18 pM.

First: [2H]C1([2H])OC([2H])([2H])C([2H])([2H])N(c2nc(-c3cnc(N)nc3)c3c(n2)N([C@@]2(C)CCN(C(=O)C4(C)CC4)C2)CC3)C1([2H])[2H] [Example 236]
Second: CS(=O)(=O)N1C[C@H]2C[C@@H]1[C@@H]2N1CCc2c(-c3cnc(N)nc3)nc(N3CCOCC3)nc21 (single isomer, unassigned) [Example 439]
The Ki of the first is lower: under 18 pM for the first, 1510 pM for the second.

— patent publication US9260439B2, “Dihydropyrrolopyrimidine derivatives” (PFIZER INC., priority 2014, dated 2016)
